Consider 7 compounds from patent EP0466030B1, “N-acyl dipeptides and their use” (DEGUSSA AG, priority 1990, dated 1992).

SMILES strings stand for the structures. Where a SMILES comes first, the peptide text is derived from it. Bridges are numbered along the chain shown (N, C = ends). Roman numbers before positions name the chains, in order. The star is where a group is joined. Butyryl = CCCC(=O)*

The conditions of data set [1]: Ratten; Z. Ernährungswiss. 28 (1989), 32 - 35; cited from earlier work.
Data set [2] relates to L1210 Mäuse-Leukaemiezellen. In words: Comparative cell growth experiment with supplemented culture medium. It counts as cell-based. The note with it: for Zellwachstum: comparison among the three supplements L-Glutamin, L-Alanyl-L-glutamin, N-Acetyl-L-alanyl-L-glutamin; for Wachstum im Vergleich zum glutaminfreien Medium: supplemented medium versus glutamine-free medium. An excerpt:
Weiterhin wurde überraschend festgestellt, daß N-Acyldipeptide als Quelle für die C-terminalen Aminosäuren in Nährmedien für Zellkulturen dienen können.

Data set [3] concerns L1210 Mäuse-Leukaemiezellen. As to conditions: general statement on cells, no source or experiment given; cited from earlier work.
A short description of data set [4]: Cleavage of the substrate by pig kidney homogenate (decrease of substrate followed by HPLC). It counts as in vitro ADME, Schwein. As to conditions: for spezifische Aktivität des Nierenhomogenisats: 1 ml supernatant + 1 ml 0,1 M Tris/HCl (pH 7) + 1 ml 30 mM substrate solution, 37°C, HPLC; for schneller als N-Acetyl-L-tyrosin gespalten: in vitro, Schweinenierenhomogenisat, rate relative to N-Acetyl-L-tyrosin. The procedure: 0,1 Mol L-Alanyl-L-tyrosin wurden in 50 ml 2N Natronlauge gelöst. Bei 0°C wurden 0,11 Mol Acetanhydrid in 18 ml Tetrahydrofuran und 27,5 ml 4N Natronlauge so zugetropft, daß der pH-Wert des Reaktionsgemisches stets bei etwa 11 lag. Nach Beendigung der Zugabe wurde 1 Stunde lang nachgerührt, dann mit konzentrierter Salzsäure auf pH 1 angesäuert und das Volumen der Lösung auf die Hälfte eingeengt. Das N-Acetyl-L-alanyl-L-tyrosin kristallisierte aus, wurde abfiltriert, mit Wasser gewaschen und getrocknet. […] 1 ml des nach 30-minütiger Zentrifugation bei 10000 U/min erhaltenen Überstandes wurden mit 1 ml 0,1 M Tris/HCl (pH 7)-Puffer und 1 ml einer 30 mM Lösung des Substrates in 0,1 M Tris/HCl (pH7)-Puffer versetzt und bei 37°C inkubiert. Die zeitliche Abnahme der Substratkonzentration wurde durch HPLC verfolgt.

Regarding `CC(=O)NCC(=O)N[C@@H](CSSC[C@H](NC(=O)CNC(C)=O)C(=O)O)C(=O)O` [Bis-(acetylglycyl)-L,L-cystin] (I: Ac-Gly-Cys-OH / II: Ac-Gly-Cys-OH; disulfide I:2-II:2), the “Eignung als Cysteinquelle bei der parenteralen Ernährung” value in data set [1] is listed as “nicht als Cysteinquelle geeignet”. Regarding `C[C@H](N)C(=O)N[C@@H](CCC(N)=O)C(=O)O` [L-Alanyl-L-glutamin] (H-Ala-Gln-OH), in data set [2], the Zellwachstum result is on record as “kein signifikanter Unterschied” and the “Wachstum im Vergleich zum glutaminfreien Medium” value was “deutlich erhöhtes Wachstum”.

In the case of `CC(=O)N[C@@H](C)C(=O)N[C@@H](CCC(N)=O)C(=O)O` [N-Acetyl-L-alanyl-L-glutamin] (Ac-Ala-Gln-OH), in data set [2], the Zellwachstum result is on record as “kein signifikanter Unterschied” and the “Wachstum im Vergleich zum glutaminfreien Medium” value was “deutlich erhöhtes Wachstum”. Besides, the “von den Zellen verwertet” value in data set [2] (utilisation by L1210 cells as glutamine source) was “sehr gut verwertet”. Regarding `CC(=O)N[C@@H](CCC(N)=O)C(=O)O` [N-Acetyl-L-glutamin], the “von Zellen genutzt” value in data set [3] is on record as “nicht oder nur sehr schlecht genutzt”. For `NC(=O)CC[C@H](N)C(=O)O` [L-Glutamin], in data set [2], the Zellwachstum result is “kein signifikanter Unterschied” and the “Wachstum im Vergleich zum glutaminfreien Medium” value is listed as “deutlich erhöhtes Wachstum”. `CCCC(=O)N[C@@H](C)C(=O)N[C@@H](Cc1ccc(O)cc1)C(=O)O` [N-Butyryl-L-alanyl-L-tyrosin] (Butyryl-Ala-Tyr-OH): in data set [4], the “spezifische Aktivität des Nierenhomogenisats” value is 660 nMol pro Minute und g Niere and the “schneller als N-Acetyl-L-tyrosin gespalten” value was 15 mal.

On to `CC(=O)N[C@@H](C)C(=O)N[C@@H](Cc1ccc(O)cc1)C(=O)O` [N-Acetyl-L-alanyl-L-tyrosin] (Ac-Ala-Tyr-OH), for which, in data set [4], the “spezifische Aktivität des Nierenhomogenisats” value is reported as 420 nMol pro Minute und g Niere and the “schneller als N-Acetyl-L-tyrosin gespalten” value is reported as 10 mal.
